Data taken from ChEMBL document CHEMBL1145373, “Syntheses of potent, selective, and orally bioavailable indazole-pyridine series of protein kinase B/Akt inhibitors with reduced hypotension” (J Med Chem, 2007).
pEC50, pIC50: −log10 of the molar value.

How the values were obtained:
[1] = Cytotoxicity against human MIA PaCa cells by MTT assay; assay type: functional, cell-based
[2] = target: cAMP-dependent protein kinase (PKA) (Homo sapiens, UniProt P22694+P17612+P22612); assay: Inhibition of PKA; assay type: protein assay
[3] = Oral bioavailability in mouse at 10 mg/kg, po; assay type: ADME, organism-based; conditions: in vivo
[4] = Half life in mouse at 10 mg/kg, po; assay type: ADME, organism-based; design: dose 10 mg/kg, route oral; conditions: in vivo
[5] = AUC in mouse at 10 mg/kg, po; assay type: ADME, organism-based; design: dose 10 mg/kg, route oral; conditions: plasma
[6] = Toxicity assessed as prolongation of action potential duration in dog purkinje fibres at 20 uM; assay type: tissue-based, Canis lupus familiaris, Purkinje fiber
[7] = Hypotensive effect in dog femoral artery by femoral artery relaxation assay; assay type: functional, tissue-based, Canis lupus familiaris
[8] = Oral bioavailability in dog at 2.5 mg/kg, po; assay type: ADME, organism-based, Canis lupus familiaris; conditions: in vivo
[9] = Oral bioavailability in orally dosed rat; assay type: ADME, organism-based; conditions: in vivo
[10] = test system: Mus musculus; assay: Toxicity assessed as decrease in MAP in mouse at 150 mg/kg, po; assay type: organism-based; design: dose 150 mg/kg, route oral; conditions: in vivo
[11] = Half life in mouse at 3 mg/kg, iv; assay type: ADME, organism-based; design: dose 3 mg/kg, route intravenous; conditions: in vivo
[12] = target: Voltage-gated inwardly rectifying potassium channel KCNH2 (Homo sapiens, UniProt Q12809); assay: Inhibition of hERG by patch clamp assay; assay type: toxicity
[13] = test system: Canis familiaris; assay: Cardiovascular toxicity assessed as induction of acute hypotension in dog at 25 mg/kg, iv by femoral artery relaxation assay; assay type: organism-based, Canis lupus familiaris; design: dose 25 mg/kg, route intravenous; conditions: in vivo
[14] = test system: Canis familiaris; assay: Toxicity assessed as decrease in MAP in dog infused at 0.48 mg/kg/min; assay type: organism-based, Canis lupus familiaris; conditions: in vivo

Chain of Voltage-gated inwardly rectifying potassium channel KCNH2 (Q12809 whole entry): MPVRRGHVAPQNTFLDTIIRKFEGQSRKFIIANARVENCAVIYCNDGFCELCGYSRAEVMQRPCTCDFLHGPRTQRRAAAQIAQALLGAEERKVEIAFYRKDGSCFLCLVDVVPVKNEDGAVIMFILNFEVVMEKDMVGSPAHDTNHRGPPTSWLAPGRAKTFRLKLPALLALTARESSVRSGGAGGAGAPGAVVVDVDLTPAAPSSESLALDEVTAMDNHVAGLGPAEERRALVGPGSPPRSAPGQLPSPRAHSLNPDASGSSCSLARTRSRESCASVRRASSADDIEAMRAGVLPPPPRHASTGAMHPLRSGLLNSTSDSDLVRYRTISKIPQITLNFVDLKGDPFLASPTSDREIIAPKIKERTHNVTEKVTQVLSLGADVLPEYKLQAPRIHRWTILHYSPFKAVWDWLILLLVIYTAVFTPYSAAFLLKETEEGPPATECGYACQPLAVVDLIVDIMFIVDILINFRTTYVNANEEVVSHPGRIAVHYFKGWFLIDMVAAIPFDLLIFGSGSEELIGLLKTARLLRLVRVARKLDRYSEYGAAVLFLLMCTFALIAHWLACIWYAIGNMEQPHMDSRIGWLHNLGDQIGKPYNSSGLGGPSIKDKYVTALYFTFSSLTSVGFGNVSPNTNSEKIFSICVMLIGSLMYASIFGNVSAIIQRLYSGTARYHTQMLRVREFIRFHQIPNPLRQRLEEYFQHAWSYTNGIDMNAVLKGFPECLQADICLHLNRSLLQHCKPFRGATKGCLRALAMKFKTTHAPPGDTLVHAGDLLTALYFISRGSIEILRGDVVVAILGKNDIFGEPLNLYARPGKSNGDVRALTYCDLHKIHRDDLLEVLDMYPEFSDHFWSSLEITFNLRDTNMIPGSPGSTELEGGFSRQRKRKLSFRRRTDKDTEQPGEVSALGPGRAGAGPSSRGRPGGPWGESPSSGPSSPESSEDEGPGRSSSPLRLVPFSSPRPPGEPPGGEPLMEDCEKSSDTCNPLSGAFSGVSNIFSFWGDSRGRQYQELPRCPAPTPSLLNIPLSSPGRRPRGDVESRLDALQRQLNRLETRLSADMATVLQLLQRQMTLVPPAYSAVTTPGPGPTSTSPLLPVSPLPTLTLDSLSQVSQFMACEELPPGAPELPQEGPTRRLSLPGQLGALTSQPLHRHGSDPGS

| SMILES | pEC50 [1] | other results |
| --- | --- | --- |
| Cc1n[nH]c2ccc(-c3cncc(OC[C@@H](N)Cc4ccccc4OC(F)(F)F)c3)cc12 | 6.64 | – |
| COc1ccc(F)cc1C[C@H](N)COc1cncc(-c2ccc3[nH]nc(C)c3c2)c1 | 6.64 | – |
| Cc1n[nH]c2ccc(-c3cncc(OC[C@@H](N)Cc4cccc(C(F)(F)F)c4)c3)cc12 | 6.22 | IC50 [2]: 5 nM |
| Cc1n[nH]c2ccc(-c3cncc(OC[C@@H](N)Cc4ccc(F)c(C(F)(F)F)c4)c3)cc12 | 6.22 | – |
| Cc1n[nH]c2ccc(-c3cncc(OC[C@@H](N)Cc4ccc5c(c4)OC(F)(F)C(F)(F)O5)c3)cc12 | 5.43 | – |
| Cc1n[nH]c2ccc(-c3cncc(OC[C@@H](N)Cc4cccc(OCC5CCNCC5)c4)c3)cc12 | 6.60 | – |
| Cc1n[nH]c2ccc(-c3cncc(OC[C@@H](N)Cc4cccc(OCC5CCCCC5)c4)c3)cc12 | 4.78 | – |
| Cc1n[nH]c2ccc(-c3cncc(OC[C@@H](N)Cc4cccc(OCC5CCN(C)CC5)c4)c3)cc12 | 5.90 | – |
| Cc1n[nH]c2ccc(-c3cncc(OC[C@@H](N)Cc4cccc(OCCN)c4)c3)cc12 | 5.32 | – |
| N[C@H](COc1cncc(-c2cc3cn[nH]c3cn2)c1)Cc1cccc(C(F)(F)F)c1 | 5.62 | IC50 [2]: 78 nM |
| Cc1n[nH]c2cnc(-c3cncc(OC[C@@H](N)Cc4cccc(C(F)(F)F)c4)c3)cc12 | 6.43 | IC50 [2]: 13 nM; bioavailability [3]: 25%; half-life [4]: 110 min; AUC [5]: 1.7 µM·h; Activity [6]: -4% |
| Cc1cc(C[C@H](N)COc2cncc(-c3ccc4[nH]nc(C)c4c3)c2)ccc1Br | 5.90 | – |
| Cc1ccc(C[C@H](N)COc2cncc(-c3ccc4[nH]nc(C)c4c3)c2)cc1F | 6.48 | – |
| Cc1cc(C)c(C[C@H](N)COc2cncc(-c3ccc4[nH]nc(C)c4c3)c2)c(C)c1 | 5.79 | – |
| Cc1n[nH]c2ccc(-c3cncc(OC[C@@H](N)Cc4cccc(OC(F)(F)F)c4)c3)cc12 | 6.08 | – |
| Cc1n[nH]c2ccc(-c3cncc(OC[C@@H](N)Cc4cc(C(F)(F)F)ccc4F)c3)cc12 | 6.01 | – |
| Cc1n[nH]c2ccc(-c3cncc(OC[C@@H](N)Cc4ccc(C(F)(F)F)cc4F)c3)cc12 | 5.54 | – |
| Cc1n[nH]c2ccc(-c3cncc(OC[C@@H](N)Cc4ccc(OC(F)(F)F)cc4)c3)cc12 | 5.77 | – |
| Cc1n[nH]c2ccc(-c3cncc(OC[C@@H](N)Cc4ccc5c(c4)OCO5)c3)cc12 | 6.24 | – |
| Cc1n[nH]c2ccc(-c3cncc(OC[C@@H](N)Cc4cccc5c4OC(F)(F)O5)c3)cc12 | 6.17 | – |
| Cc1n[nH]c2ccc(-c3cncc(OC[C@@H](N)Cc4ccc(Br)cc4F)c3)cc12 | 6.05 | – |
| Cc1n[nH]c2ccc(-c3cncc(OC[C@@H](N)Cc4ccc(Br)c(F)c4)c3)cc12 | 6.37 | – |
| Cc1ccc(F)cc1C[C@H](N)COc1cncc(-c2ccc3[nH]nc(C)c3c2)c1 | 6.62 | – |
| Cc1n[nH]c2ccc(-c3cncc(OC[C@@H](N)Cc4cccc(F)c4)c3)cc12 | 6.59 | – |
| Cc1n[nH]c2ccc(-c3cncc(OC[C@@H](N)Cc4ccc(F)cc4F)c3)cc12 | 6.03 | – |
| Cc1n[nH]c2ccc(-c3cncc(OC[C@@H](N)Cc4cccc(I)c4)c3)cc12 | 6.09 | – |

| SMILES | pEC50 [1] | other results |
| --- | --- | --- |
| Cc1n[nH]c2ccc(-c3cncc(OC[C@@H](N)Cc4ccc(F)c(F)c4F)c3)cc12 | 6.54 | – |
| Cc1n[nH]c2ccc(-c3cncc(OC[C@@H](N)Cc4cccc(Cl)c4)c3)cc12 | 6.35 | – |
| Cc1n[nH]c2ccc(-c3cncc(OC[C@@H](N)Cc4ccc(Cl)cc4)c3)cc12 | 6.36 | – |
| Cc1n[nH]c2ccc(-c3cncc(OC[C@@H](N)Cc4ccccc4Br)c3)cc12 | 6.47 | – |
| Cc1n[nH]c2ccc(-c3cncc(OC[C@@H](N)Cc4ccc(Br)cc4)c3)cc12 | 6.15 | – |
| Cc1n[nH]c2ccc(-c3cncc(OC[C@@H](N)Cc4ccc(Cl)c(F)c4)c3)cc12 | 6.57 | bioavailability [3]: 84%; half-life [4]: 126 min; pEC50 [7]: 5.22; AUC [5]: 2.3 µM·h; bioavailability [8]: 40%; bioavailability [9]: 38%; Activity [6]: -1.3% |
| Cc1n[nH]c2ccc(-c3cncc(OC[C@@H](N)Cc4cccc(Cl)c4Cl)c3)cc12 | 6.68 | – |
| Cc1n[nH]c2ccc(-c3cncc(OC[C@@H](N)Cc4ccc(Cl)c(Cl)c4)c3)cc12 | 6.31 | – |
| Cc1n[nH]c2ccc(-c3cncc(OC[C@@H](N)Cc4cc(F)cc(C(F)(F)F)c4)c3)cc12 | 5.86 | – |
| Cc1n[nH]c2ccc(-c3cncc(OC[C@@H](N)Cc4ccc(C(F)(F)F)c(F)c4)c3)cc12 | 5.84 | – |
| Cc1n[nH]c2ccc(-c3cncc(OC[C@@H](N)Cc4ccc(F)c(Cl)c4)c3)cc12 | 6.17 | – |
| Cc1n[nH]c2ccc(-c3cncc(OC[C@@H](N)Cc4cc(Cl)cc(Cl)c4)c3)cc12 | 6.00 | – |
| Cc1cc(F)ccc1C[C@H](N)COc1cncc(-c2ccc3[nH]nc(C)c3c2)c1 | 6.47 | – |
| Cc1n[nH]c2ccc(-c3cncc(OC[C@@H](N)Cc4ccccc4)c3)cc12 | 6.19 | Activity [10]: 31 mmHg; bioavailability [3]: 70%; half-life [4]: 60 min; AUC [5]: 2 µM·h; half-life [11]: 60 min; pIC50 [12]: 4.87; Activity [6]: Toxic |
| Cc1n[nH]c2ccc(-c3cncc(OC[C@@H](N)Cc4cccc(OCCC5CCNCC5)c4)c3)cc12 | 5.56 | – |
| N[C@H](COc1cncc(-c2ccc3c(c2)/C(=C/c2ccc[nH]2)C(=O)N3)c1)Cc1ccccc1 | – | Activity [13]: 30 mmHg; bioavailability [3]: 0%; pEC50 [7]: 3.45; half-life [11]: 30 min |
| N[C@H](COc1cncc(-c2cc3c(Cl)n[nH]c3cn2)c1)Cc1cccc(C(F)(F)F)c1 | 5.86 | IC50 [2]: 15 nM |
| Cc1n[nH]c2ccc(-c3cncc(OC[C@@H](N)Cc4ccccc4Cl)c3)cc12 | 6.42 | – |
| Cc1n[nH]c2ccc(-c3cncc(OC[C@@H](N)Cc4cccc(Br)c4)c3)cc12 | 6.43 | – |
| Cc1n[nH]c2ccc(-c3cncc(OC[C@@H](N)Cc4cccc(OCCN5CCOCC5)c4)c3)cc12 | 4.89 | – |
| Cc1n[nH]c2cnc(-c3cncc(OC[C@@H](N)Cc4cccc(F)c4F)c3)cc12 | 6.59 | IC50 [2]: 7 nM |
| Cc1cc(C[C@H](N)COc2cncc(-c3ccc4[nH]nc(C)c4c3)c2)ccc1F | 5.97 | – |
| Cc1n[nH]c2ccc(-c3cncc(OC[C@@H](N)Cc4cccc(F)c4F)c3)cc12 | 6.74 | IC50 [2]: 9 nM |
| N[C@H](COc1cncc(-c2ccc3c(c2)/C(=C\c2ccco2)C(=O)N3)c1)Cc1ccccc1 (stereo in doubt) | – | bioavailability [3]: 0%; half-life [11]: 69 min |
| Cc1n[nH]c2ccc(-c3cncc(OC[C@@H](N)Cc4c[nH]c5ccccc45)c3)cc12 [A-443654] | – | half-life [4]: 36 min; half-life [11]: 36 min; Activity [14]: 60 mmHg; Activity [6]: 2.4% |
